Laboratory results reported in patent publication US11434248B2, “PDE9 inhibitor and use thereof” (Nanjing TransThera Biosciences Co. Ltd., priority 2017, dated 2022).
Like-named read-outs stand apart in the source and are kept apart here.

Legend:
[1] = Stability in human liver microsome
[2] = Canine pharmacokinetic evaluation; settings: Beagle dogs, n = 3; for F %: dose iv/po 1/2 mg/kg; for AUCinf po / tz1/2 po (terminal elimination half-life): intragastric 2.0 mg/kg; for AUCinf iv / Cl_obs iv (clearance rate) / tz1/2 iv (terminal elimination half-life): intravenous bolus 1 mg/kg
[3] = Rat pharmacokinetic evaluation; type: in vivo, SD male rats; settings: SD rat; for tz1/2 po (terminal elimination half-life): intragastric 5.0 mg/kg; for tz1/2 iv (terminal elimination half-life): intravenous bolus 1 mg/kg
Experimental: Experimental Example 4: Rat Pharmacokinetic Evaluation of the Compounds of the Invention
Aim: The in vivo pharmacokinetic parameters of the compounds in SD male rats (purchased from Beijing Vital River Animal Technology Co., Ltd.) were evaluated and bioavailability of the compounds was examined.
Animal Administration and Sample Collection:
The solution of compounds 65, 90, 107, 158 was intragastrically administered to SD rat at a dose of 5.0 mg/kg.
The experimental compound 76 was dissolved in 30% DMF+30% PEG400+40% saline to prepare a solution. The solution of compound 76 was intragastrically administered to SD rat at a dose of 5.0 mg/kg.
The experimental compound 76 was dissolved in 30% DMF+30% PEG400+40% saline to prepare a solution.
The experimental compounds 84 and 96 were dissolved in 5% DMSO+10% PEG400+85% (28% HP-β-CD) saline to prepare a solution. The solution of compounds 84 and 96 was intragastrically administered to SD rat at a dose of 5.0 mg/kg.
The experimental compounds 84 and 96 were dissolved in 5% DMSO+10% PEG400+85% (28% HP-β-CD) saline to prepare a solution.
The animals were fixed. The tail was heated with a water bath at 10 min before each time point. About 100 μL of blood from tail vein was collected, and then placed in an anti-coagulation tube containing EDTA-K2 after collection. Blood samples were centrifuged at 8000 rpm at 4° C. for 6 min to obtain plasma samples.
The concentration of test sample was output using Analyst 1.6.1 from AB SCIEX.

human PDE9 = human PDE9 (Homo sapiens (Human), UniProt O76083); settings: background statement on conventional PDE inhibitors; cited from earlier work
[4] = human
[5] = human liver microsome 0.5 mg protein/mL, compound 1 μM, 37° C.

human PDE9, sequence (O76083 whole entry): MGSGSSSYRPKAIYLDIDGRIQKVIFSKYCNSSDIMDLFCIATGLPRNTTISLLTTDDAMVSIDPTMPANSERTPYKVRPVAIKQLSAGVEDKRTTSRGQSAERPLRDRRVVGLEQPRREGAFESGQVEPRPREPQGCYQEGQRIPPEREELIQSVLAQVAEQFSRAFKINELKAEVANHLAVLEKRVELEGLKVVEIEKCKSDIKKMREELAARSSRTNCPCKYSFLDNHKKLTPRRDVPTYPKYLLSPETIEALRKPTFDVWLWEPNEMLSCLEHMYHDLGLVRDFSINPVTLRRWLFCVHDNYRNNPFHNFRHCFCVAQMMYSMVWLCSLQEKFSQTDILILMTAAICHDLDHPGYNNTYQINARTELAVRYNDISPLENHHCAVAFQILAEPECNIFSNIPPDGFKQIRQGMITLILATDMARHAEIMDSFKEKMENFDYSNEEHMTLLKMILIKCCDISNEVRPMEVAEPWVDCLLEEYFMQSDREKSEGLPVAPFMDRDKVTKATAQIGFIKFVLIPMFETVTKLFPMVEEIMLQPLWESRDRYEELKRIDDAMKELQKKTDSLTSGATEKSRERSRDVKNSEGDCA

`N#Cc1c(N2CC[C@@H](n3cccn3)C2)c2ccncc2[nH]c1=O` [Compound 19, (R)-4-(3-(1H-pyrazol-1-yl)pyrrolidin-1-yl)-2-oxo-1,2-dihydro-1,7-naphthyridin-3-carbonitrile] gave a k [1, 5] of 0.191 min⁻¹.
`COCCOc1cc2c(N3CCC(C)(OC)CC3)c(C#N)c(=O)[nH]c2cn1` [Compound 145, 4-(4-methoxy-4-methylpiperidin-1-yl)-6-(2-methoxyethoxy)-2-oxo-1,2-dihydro-1,7-naphthyridin-3-carbonitrile] showed a k [1, 5] of 0.0019 min⁻¹.
With `Cc1cc2c(N3CCC4(CCC4)CC3)c(C#N)c(=O)[nH]c2cn1` [Compound 65, 6-methyl-2-oxo-4-(7-azaspiro[3.5]nonane-7-yl)-1,2-dihydro-1,7-naphthyridin-3-carbonitrile] the F % [2] was 25.5%, the AUCinf po [2] was 543 ng·h/mL and the “tz1/2 po (terminal elimination half-life)” value (shortened to “tz1/2 po”) [2] was 0.47 h. For the same molecule, the AUCinf iv [2] was 1065 ng·h/mL, the “Cl_obs iv (clearance rate)” value [2] was 15.7 mL/min/kg and the “tz1/2 iv (terminal elimination half-life)” value (“tz1/2 iv” below) [2] was 0.49 h. For the same molecule, the “tz1/2 po” value [3] was 2.25 h and the “tz1/2 iv” value [3] was 1.47 h.
In the case of `N#Cc1c(N2CCCCCC2)c2ccccc2[nH]c1=O` [Compound I-8, reference compound], the CLint [1, 5] was 0.1244 mL · min^−1 · mg^−1 proteins, the k [1, 5] was 0.727 min⁻¹ and the “Original drug residual % at 60 min” value ([1]; human liver microsome 0.5 mg protein/mL, compound 1 μM, β-NADPH 1 mM, 37° C., 60 min) was 5.19%. It also gave a half-life at 1 μM ([1]; human, liver microsomes) of 0.186 h.
In the case of `CC(C)Cn1c(=O)n(C)c(=O)c2[nH]cnc21` [IBMX], the “inhibition activity on PDE9” value (human PDE9) is given as “no or very low inhibition activity”.
For `CC(=O)Nc1ccc(-c2c[nH]c(=O)cn2)cc1` [SKF94120], the “inhibition activity on PDE9” value (human PDE9) is given as “no or very low inhibition activity”.
`N#Cc1c(N2CCC3(CC2)CC3)c2ccncc2[nH]c1=O` [Compound 25, 2-oxo-4-(6-azaspiro[2.5]octane-6-yl)-1,2-dihydro-1,7-naphthyridin-3-carbonitrile] showed a k [4] of 0.0022 min⁻¹, a F % [2] of 99.1% and an AUCinf po [2] of 4449 ng·h/mL. The “tz1/2 po” value [2] was 9.45 h, the AUCinf iv [2] was 2244 ng·h/mL and the “Cl_obs iv (clearance rate)” value [2] was 7.83 mL/min/kg. For the same molecule, the “tz1/2 iv” value [2] was 10.4 h, the “tz1/2 po” value [3] was 1.40 h and the “tz1/2 iv” value [3] was 0.51 h.
For `N#Cc1c(N2CCC3(CC2)CC3)c2cc(C(=O)O)ncc2[nH]c1=O` [Compound 83, 3-cyano-2-oxo-4-(6-azaspiro[2.5]octane-6-yl)-1,2-dihydro-1,7-naphthyridin-6-carboxylic acid], the T½ [1, 5] was “→∞” and the k [1, 5] was 0.5421 min⁻¹.
Work on `N#Cc1c(N2CCC3(CCC3)CC2)c2cc(N3CC(N)C3)ncc2[nH]c1=O` [Compound 53, 6-(3-aminoazetidin-1-yl)-2-oxo-4-(7-azaspiro[3.5]nonane-7-yl)-1,2-dihydro-1,7-naphthyridin-3-carbonitrile] yielded a k [4] of 0.4821 min⁻¹.
With `COc1cc2c(N3CCC4(CCC4)CC3)c(C#N)c(=O)[nH]c2cn1` [Compound 66, 6-methoxy-2-oxo-4-(7-azaspiro[3.5]nonane-7-yl)-1,2-dihydro-1,7-naphthyridin-3-carbonitrile] the T½ [1, 5] was “→^” and the k [1, 5] was -0.515 min⁻¹.
For `N#Cc1c(N2CCC3(CC2)CC3)c2cc(C(O)C3CC3)ncc2[nH]c1=O` (centres unmarked) [Compound 90, 6-(cyclopropyl (hydroxy)methyl)-2-oxo-4-(6-azaspiro[2.5]octane-6-yl)-1,2-dihydro-1,7-naphthyridin-3-carbonitrile], the k [4] was 0.0037 min⁻¹, the “tz1/2 po” value [3] was 4.49 h and the “tz1/2 iv” value [3] was 1.48 h.
In the case of `N#Cc1c(N2CCC3(CC2)CC3)c2ncccc2[nH]c1=O` [Compound 80, 2-oxo-4-(6-azaspiro[2.5]octane-6-yl)-1,2-dihydro-1,5-naphthyridin-3-carbonitrile], the k [4] was 0.9877 min⁻¹.
In the case of `COc1ccc(C2CNC(=O)C2)cc1OC1CCCC1` (centres unmarked) [rolipram], the “inhibition activity on PDE9” value (human PDE9) is listed as “no or very low inhibition activity”.
With `CCc1cc2c(N3CCC4(CC3)CC4)c(C#N)c(=O)[nH]c2cn1` [Compound 76, 6-ethyl-2-oxo-4-(6-azaspiro[2.5]octane-6-yl)-1,2-dihydro-1,7-naphthyridin-3-carbonitrile] the k [4] was 0.0015 min⁻¹, the “tz1/2 po” value [3] was 9.60 h and the “tz1/2 iv” value [3] was 0.89 h.
With `CC(C)(O)c1cc2c(N3CCC4(CCC4)CC3)c(C#N)c(=O)[nH]c2cn1` [Compound 82, 6-(2-hydroxypropan-2-yl)-2-oxo-4-(7-azaspiro[3.5]nonane-7-yl)-1,2-dihydro-1,7-naphthyridin-3-carbonitrile] the k [4] was 0.9760 min⁻¹.
With `CC(C)(O)c1cc2c(N3CCC4(CC3)CC4)c(C#N)c(=O)[nH]c2cn1` [Compound 84, 6-(2-hydroxypropan-2-yl)-2-oxo-4-(6-azaspiro[2.5]octane-6-yl)-1,2-dihydro-1,7-naphthyridin-3-carbonitrile] the “tz1/2 po” value [3] was 3.24 h and the “tz1/2 iv” value [3] was 1.89 h.
`COC1(C)CCN(c2c(C#N)c(=O)[nH]c3cnc(C(C)(C)O)cc23)CC1` [Compound 109, 6-(2-hydroxypropan-2-yl)-4-(4-methoxy-4-methylpiperidin-1-yl)-2-oxo-1,2-dihydro-1,7-naphthyridine-3-carbonitrile] showed a k [1, 5] of 0.4444 min⁻¹.
For `CCOC(=O)C1=C[C@]2(CC)CCCN3CCc4c(n1c1ccccc41)[C@@H]32` [vinpocetine], the “inhibition activity on PDE9” value (human PDE9) is listed as “no or very low inhibition activity”.
In the case of `OCCN(CCO)c1nc(N2CCCCC2)c2nc(N(CCO)CCO)nc(N3CCCCC3)c2n1` [dipyridamole], the “inhibition activity on PDE9” value (human PDE9) is given as “no or very low inhibition activity”.
Molecule `COC1(C)CCN(c2c(C#N)c(=O)[nH]c3cnccc23)CC1` [Compound 81, 4-(4-methoxy-4-methylpiperidin-1-yl)-2-oxo-1,2-dihydro-1,7-naphthyridin-3-carbonitrile] has a k [1, 5] of 0.0012 min⁻¹.
For `CNC(=O)c1cc2c(N3CCC4(CC3)CC4)c(C#N)c(=O)[nH]c2cn1` [Compound 96, 3-cyano-N-methyl-2-oxo-4-(6-azaspiro[2.5]octane-6-yl)-1,2-dihydro-1,7-naphthyridin-6-formamide], the “tz1/2 iv” value [3] was 0.30 h⁻¹.
Molecule `CCc1cc2c(N3CCC(C)(OC)CC3)c(C#N)c(=O)[nH]c2cn1` [Compound 107, 6-ethyl-4-(4-methoxy-4-methylpiperidin-1-yl)-2-oxo-1,2-dihydro-1,7-naphthyridin-3-carbonitrile] has a k [1, 5] of 0.0023 min⁻¹.
In the case of `N#Cc1c(N2CCC3(CC2)CC3)c2cc(C(O)CO)ncc2[nH]c1=O` (centres unmarked) [Compound 32, 6-(1,2-dihydroxyethyl)-2-oxo-4-(6-azaspiro[2.5]octane-6-yl)-1,2-dihydro-1,7-naphthyridin-3-carbonitrile], the T½ [1, 5] was “→∞” and the k [1, 5] was -0.3760 min⁻¹.
Molecule `N#Cc1c(N2CCC3(CCC3)CC2)c2cc(N3CC(O)C3)ncc2[nH]c1=O` [Compound 51, 6-(3-hydroxyazetidin-1-yl)-2-oxo-4-(7-azaspiro[3.5]nonane-7-yl)-1,2-dihydro-1,7-naphthyridin-3-carbonitrile] has a k [4] of 0.9418 min⁻¹.
